Source: PubChem BioAssay AID504645 (Southern Research Specialized Biocontainment Screening …, 2011)
Activity calls are given as the source filed them. The rule behind the calls is not given here.

Experiment: Mycobacterium tuberculosis H37Rv growth inhibition, glycerol free medium, confirmatory screen (AID 504645);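 note: bacteria grown one week before the viability dye was added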
Details: M. tuberculosis H37Rv growth inhibition, glycerol-free medium; at 25 µM (top of the series)

O=C(NCCc1ccc(Cl)cc1)C1CCC(CNc2c(N3CCCCC3)c(=O)c2=O)CC1 (stereo not given)
inhibition: 14.2% (inactive)

CC1CCN(C(=O)CSc2nc3ccccc3c(=O)[nH]2)CC1
inhibition: -0.18% (inactive)

Cc1cc(C)cc(NC(=O)CSc2nc3c(c(=O)[nH]2)CN(Cc2ccc(F)cc2)CC3)c1
inhibition: -0.57% (inactive)

CCc1c(O)nc(SCC(=O)Nc2ccc(OC)cc2)n(C2CCCCC2)c1=O
inhibition: 2.43% (inactive)

CCOc1ccc2nc(NC(=O)C(CC)Sc3nc(C)cc(=O)[nH]3)sc2c1 (stereo not given)
inhibition: 4.79% (inactive)

CC(NC(=O)CSc1nc2ccccc2c(=O)[nH]1)c1ccccc1 (stereo not given)
inhibition: 1.63% (inactive)

CCOC(=O)N1CCC(Nc2c(N3CCN(c4cccc(C(F)(F)F)c4)CC3)c(=O)c2=O)CC1
inhibition: 3.78% (inactive)

Cc1nc(SCC(N)=O)[nH]c(=O)c1C
inhibition: 2.85% (inactive)

Nc1cc(=O)[nH]c(SCC(=O)Nc2ccccc2-c2ccccc2)n1
inhibition: 3.67% (inactive)

COc1ccc(NC(=O)CSc2nc(NS(=O)(=O)c3ccc(C)cc3)cc(=O)[nH]2)cc1
inhibition: 1.34% (inactive)

Cc1cc(=O)[nH]c(=S)[nH]1
inhibition: 3.98% (inactive)

COC(=O)C(Nc1nc(SCC(=O)NC2CCCCC2)nc2ccccc12)c1ccccc1 (stereo not given)
inhibition: -2.65% (inactive)

O=C(CSc1ccccn1)NC1CCCCC1
inhibition: 5.28% (inactive)

Nc1cc(=O)[nH]c(SCC(=O)Nc2ccc(Oc3ccccc3)cc2)n1
inhibition: 7.34% (inactive)

Oc1ccccc1/C=N/Nc1ccnc(SCc2ccccc2)n1
inhibition: 2.52% (inactive)

CCOC(=O)C(CC)Sc1ncnc2c1nnn2-c1ccc(F)cc1 (stereo not given)
inhibition: 14.7% (inactive)

COc1ccc(-c2noc(CSc3nc(N)c(-c4ccccc4)c(=O)[nH]3)n2)cc1OC
inhibition: 3.69% (inactive)

CCOc1ccc(NC(=O)c2ccc(CNc3c(N4CCCC4)c(=O)c3=O)cc2)cc1
inhibition: 7.47% (inactive)

O=C(CSc1ncccn1)NC1CCCCC1
inhibition: 2.15% (inactive)

Cc1cccc(N2CCN(C(=O)c3ccc(CNc4c(N5CCC(C)CC5)c(=O)c4=O)cc3)CC2C)c1 (stereo not given)
inhibition: 4.48% (inactive)
